Source: US20210346383A1, “COMPOUNDS, COMPOSITIONS AND METHODS FOR TREATING OR PREVENTING HER-DRIVEN CANCERS” (Rain Therapeutics Inc., priority 2018, published 2021)
Where two headings read alike, the source gives them in different places.

Experiments:
[1] = target: Ba/F3 cells expressing HER2 VC + C805S (VCCS) (Homo sapiens, UniProt P04626, DELINS776-776VC/C805S, cells depend on it); test: Ba/F3 growth inhibitory assay, HER2 exon 20 mutations; format: cell-based, murine; settings: read-out: IC50, growth inhibition
Experimental: (§1) The murine pro-B cell line Ba/F3 (RCB0805) was obtained from RIKEN Bio Resource Center (Tsukuba, Japan). […] Several Ba/F3 lines which were established in the previous study were also used in this study.
(§2) Briefly, 2000 cells were seeded in each well of 96-well plates. Twenty-four hours later, DMSO or a TKI at indicated drug concentration were added, and the cells were cultured for additional 72 hours. A colorimetric assay was used to estimate the growth inhibition of each drug using the Cell Counting Kit-8 reagent (Dojindo Laboratories, Kumamoto, Japan). Each experiment was performed in triplicate.
(§3) HER2 A775_G776insYVMA, G776delinsVC, P780_Y781insGSP, YVMA+C805S (YVMACS) and VC+C805S (VCCS) mutations were introduced into Ba/F3 cells using retroviral vector.

[2] = target: Ba/F3 cells expressing EGFR L858R (Homo sapiens, UniProt P00533, L858R, cells depend on it); test: Ba/F3 cell growth inhibition assay (Cell Counting Kit-8); format: cell-based, murine; settings: 72 hours, read-out: IC50, growth inhibition
[3] = target: Ba/F3 cells expressing EGFR D770insSVD (Homo sapiens, UniProt P00533, DUP768-770, cells depend on it); test: as above; format: cell-based, murine; settings: 72 hours, read-out: IC50, growth inhibition
[4] = target: Ba/F3 cells expressing EGFR Del 19 (Homo sapiens, UniProt P00533, DEL746-750, cells depend on it); test: as above; format: cell-based, murine; settings: Ba/F3 EGFR Del 19; 72 hours; read-out: IC50, growth inhibition
[5] = target: Ba/F3 cells expressing EGFR H773insNPH (Homo sapiens, UniProt P00533, DUP771-773, cells depend on it); test: as above; format: cell-based, murine; settings: 72 hours, read-out: IC50, growth inhibition
[6] = target: Ba/F3 cells expressing HER2 YVMA + C805S (YVMACS) (Homo sapiens, UniProt P04626, DUP772-775/C805S, cells depend on it); test: Ba/F3 growth inhibitory assay, HER2 exon 20 mutations; format: cell-based, murine; settings: read-out: IC50, growth inhibition
Experimental: as §1, §2, §3

[7] = target: Ba/F3 cells expressing EGFR Del 19 + T790M + C797S (Homo sapiens, UniProt P00533, DEL746-750/T790M/C797S, cells depend on it); test: Ba/F3 cell growth inhibition assay (Cell Counting Kit-8); format: cell-based, murine; settings: Ba/F3 EGFR Del 19 + T790M + C797S; 72 hours; read-out: IC50, growth inhibition
[8] = target: Ba/F3 cells expressing EGFR A763insFQEA (Homo sapiens, UniProt P00533, INS763FQEA, cells depend on it); test: as above; format: cell-based, murine; settings: 72 hours, read-out: IC50, growth inhibition
[9] = target: Ba/F3 cells expressing EGFR H773insH (Homo sapiens, UniProt P00533, DUP773-773, cells depend on it); test: as above; format: cell-based, murine; settings: 72 hours, read-out: IC50, growth inhibition
[10] = target: Ba/F3 cells expressing HER2 G776delinsVC (Homo sapiens, UniProt P04626, DELINS776-776VC, cells depend on it); test: Ba/F3 growth inhibitory assay, HER2 exon 20 mutations; format: cell-based, murine; settings: read-out: IC50, growth inhibition
Experimental: as §1, §2, §3

[11] = target: Ba/F3 cells expressing EGFR L858R + T790M + C797S (Homo sapiens, UniProt P00533, T790M/C797S/L858R, cells depend on it); test: Ba/F3 cell growth inhibition assay (Cell Counting Kit-8); format: cell-based, murine; settings: 72 hours, read-out: IC50, growth inhibition
[12] = target: Ba/F3 cells expressing EGFR L858R + C797S (Homo sapiens, UniProt P00533, C797S/L858R, cells depend on it); test: as above; format: cell-based, murine; settings: 72 hours, read-out: IC50, growth inhibition
[13] = target: Ba/F3 cells expressing EGFR V769insASV (Homo sapiens, UniProt P00533, DUP767-769, cells depend on it); test: as above; format: cell-based, murine; settings: 72 hours, read-out: IC50, growth inhibition
[14] = target: Ba/F3 cells expressing HER2 P780_Y781insGSP (Homo sapiens, UniProt P04626, DUP778-780, cells depend on it); test: Ba/F3 growth inhibitory assay, HER2 exon 20 mutations; format: cell-based, murine; settings: read-out: IC50, growth inhibition
Experimental: as §1, §2, §3

[15] = target: Ba/F3 cells expressing HER2 A775_G776insYVMA (Homo sapiens, UniProt P04626, DUP772-775, cells depend on it); test: as above; format: cell-based, murine; settings: read-out: IC50, growth inhibition
Experimental: as §1, §2, §3

[16] = target: Ba/F3 cells expressing EGFR Del 19 + C797S (Homo sapiens, UniProt P00533, DEL746-750/C797S, cells depend on it); test: Ba/F3 cell growth inhibition assay (Cell Counting Kit-8); format: cell-based, murine; settings: Ba/F3 EGFR Del 19 + C797S; 72 hours; read-out: IC50, growth inhibition
[17] = system: H1975-luc human NSCLC cells, intracranial; settings: cited from earlier work
[18] = system: CUTO-14 (EGFR A767_V769dupASV); test: cells; settings: CUTO14, read-out: Cellular Anti-Proliferative Assay IC50
[19] = system: H-1781 (ERBB2 p.G776Ins V_G/C); test: cells; format: cell-based
[20] = system: CUTO-17 (EGFR N771_H773dupNPH); test: cells; settings: CUTO17, read-out: Cellular Anti-Proliferative Assay IC50
[21] = system: H-2170 (ERBB2 amplification); test: cells; format: cell-based; settings: Homo sapiens
[22] = system: CALU-3 (ERBB2 amplification); test: cells; format: cell-based; settings: Homo sapiens
[23] = system: PC9 brain metastasis model; settings: cited from earlier work
[24] = system: CUTO-18 (EGFR S768_D770dupSVD); test: cells; settings: read-out: Cellular Anti-Proliferative Assay IC50
[25] = 10 mg/kg and 25 mg/kg once daily, 49-day treatment

Chain of Ba/F3 cells expressing HER2 P780_Y781insGSP (P04626 with tags, fused parts or gaps DUP778-780): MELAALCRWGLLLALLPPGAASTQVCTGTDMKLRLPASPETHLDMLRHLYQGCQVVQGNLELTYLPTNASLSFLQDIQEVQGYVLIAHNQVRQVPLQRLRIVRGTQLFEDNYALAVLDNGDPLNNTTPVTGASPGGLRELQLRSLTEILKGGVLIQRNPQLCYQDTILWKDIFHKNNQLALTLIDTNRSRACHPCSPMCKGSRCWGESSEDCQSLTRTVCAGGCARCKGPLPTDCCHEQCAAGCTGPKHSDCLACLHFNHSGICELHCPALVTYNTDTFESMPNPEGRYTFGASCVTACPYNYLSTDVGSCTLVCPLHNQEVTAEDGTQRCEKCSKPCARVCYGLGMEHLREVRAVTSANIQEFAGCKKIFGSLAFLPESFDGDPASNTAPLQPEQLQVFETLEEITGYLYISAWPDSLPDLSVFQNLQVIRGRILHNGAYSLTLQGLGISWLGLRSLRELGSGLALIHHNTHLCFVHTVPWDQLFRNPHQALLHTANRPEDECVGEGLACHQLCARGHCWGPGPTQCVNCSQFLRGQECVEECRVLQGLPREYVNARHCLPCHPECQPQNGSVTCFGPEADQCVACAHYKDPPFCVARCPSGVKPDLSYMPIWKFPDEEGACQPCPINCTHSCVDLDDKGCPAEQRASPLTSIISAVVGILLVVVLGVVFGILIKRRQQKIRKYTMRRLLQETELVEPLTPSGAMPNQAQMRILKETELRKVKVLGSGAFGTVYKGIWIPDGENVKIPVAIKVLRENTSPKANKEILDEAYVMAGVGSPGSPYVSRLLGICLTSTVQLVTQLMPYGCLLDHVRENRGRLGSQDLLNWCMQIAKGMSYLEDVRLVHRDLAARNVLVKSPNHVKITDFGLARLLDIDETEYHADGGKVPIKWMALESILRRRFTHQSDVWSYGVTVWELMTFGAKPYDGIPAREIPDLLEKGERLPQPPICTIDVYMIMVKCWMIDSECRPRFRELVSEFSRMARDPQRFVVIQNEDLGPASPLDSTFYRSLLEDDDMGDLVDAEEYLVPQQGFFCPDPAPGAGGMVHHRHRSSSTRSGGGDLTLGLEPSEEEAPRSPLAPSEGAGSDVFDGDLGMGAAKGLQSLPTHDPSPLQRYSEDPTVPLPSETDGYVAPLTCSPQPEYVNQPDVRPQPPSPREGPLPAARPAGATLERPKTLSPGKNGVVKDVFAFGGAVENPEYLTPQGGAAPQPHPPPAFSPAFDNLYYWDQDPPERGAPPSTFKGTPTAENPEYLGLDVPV
Chain of Ba/F3 cells expressing HER2 G776delinsVC (P04626 with tags, fused parts or gaps DELINS776-776VC): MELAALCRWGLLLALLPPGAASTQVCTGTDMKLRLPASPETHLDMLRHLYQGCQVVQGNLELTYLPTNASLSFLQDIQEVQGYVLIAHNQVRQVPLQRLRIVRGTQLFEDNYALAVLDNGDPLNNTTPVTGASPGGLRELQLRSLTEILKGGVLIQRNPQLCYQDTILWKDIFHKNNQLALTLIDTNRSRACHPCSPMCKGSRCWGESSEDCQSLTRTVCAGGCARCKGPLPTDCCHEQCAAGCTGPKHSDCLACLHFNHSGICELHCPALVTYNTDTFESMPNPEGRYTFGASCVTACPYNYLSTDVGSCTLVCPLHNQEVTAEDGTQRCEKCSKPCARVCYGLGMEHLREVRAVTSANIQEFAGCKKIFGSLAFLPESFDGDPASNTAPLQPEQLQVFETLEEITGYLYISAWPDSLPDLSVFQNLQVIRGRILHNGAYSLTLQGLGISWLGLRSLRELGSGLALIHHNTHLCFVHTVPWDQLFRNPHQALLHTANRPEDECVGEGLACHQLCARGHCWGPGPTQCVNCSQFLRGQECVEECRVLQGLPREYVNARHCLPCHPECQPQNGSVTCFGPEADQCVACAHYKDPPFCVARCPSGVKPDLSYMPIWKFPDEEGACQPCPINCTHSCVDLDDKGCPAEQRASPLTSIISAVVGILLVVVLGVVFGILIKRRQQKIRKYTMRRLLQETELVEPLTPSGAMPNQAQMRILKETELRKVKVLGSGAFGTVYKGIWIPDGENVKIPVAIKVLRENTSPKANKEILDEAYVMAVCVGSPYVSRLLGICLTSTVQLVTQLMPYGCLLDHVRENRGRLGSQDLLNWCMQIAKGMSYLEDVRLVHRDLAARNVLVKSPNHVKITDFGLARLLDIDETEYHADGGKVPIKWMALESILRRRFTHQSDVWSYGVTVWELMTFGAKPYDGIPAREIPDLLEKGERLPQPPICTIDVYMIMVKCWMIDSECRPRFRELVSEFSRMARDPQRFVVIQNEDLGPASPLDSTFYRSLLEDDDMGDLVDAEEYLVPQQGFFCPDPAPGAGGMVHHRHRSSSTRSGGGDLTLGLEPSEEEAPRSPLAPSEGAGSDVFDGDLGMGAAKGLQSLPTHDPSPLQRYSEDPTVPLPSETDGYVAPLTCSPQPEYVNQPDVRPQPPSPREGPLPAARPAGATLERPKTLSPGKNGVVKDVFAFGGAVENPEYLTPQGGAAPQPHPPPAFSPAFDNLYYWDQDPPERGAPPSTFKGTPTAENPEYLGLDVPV
Chain of Ba/F3 cells expressing HER2 VC + C805S (VCCS) (P04626 with tags, fused parts or gaps DELINS776-776VC/C805S): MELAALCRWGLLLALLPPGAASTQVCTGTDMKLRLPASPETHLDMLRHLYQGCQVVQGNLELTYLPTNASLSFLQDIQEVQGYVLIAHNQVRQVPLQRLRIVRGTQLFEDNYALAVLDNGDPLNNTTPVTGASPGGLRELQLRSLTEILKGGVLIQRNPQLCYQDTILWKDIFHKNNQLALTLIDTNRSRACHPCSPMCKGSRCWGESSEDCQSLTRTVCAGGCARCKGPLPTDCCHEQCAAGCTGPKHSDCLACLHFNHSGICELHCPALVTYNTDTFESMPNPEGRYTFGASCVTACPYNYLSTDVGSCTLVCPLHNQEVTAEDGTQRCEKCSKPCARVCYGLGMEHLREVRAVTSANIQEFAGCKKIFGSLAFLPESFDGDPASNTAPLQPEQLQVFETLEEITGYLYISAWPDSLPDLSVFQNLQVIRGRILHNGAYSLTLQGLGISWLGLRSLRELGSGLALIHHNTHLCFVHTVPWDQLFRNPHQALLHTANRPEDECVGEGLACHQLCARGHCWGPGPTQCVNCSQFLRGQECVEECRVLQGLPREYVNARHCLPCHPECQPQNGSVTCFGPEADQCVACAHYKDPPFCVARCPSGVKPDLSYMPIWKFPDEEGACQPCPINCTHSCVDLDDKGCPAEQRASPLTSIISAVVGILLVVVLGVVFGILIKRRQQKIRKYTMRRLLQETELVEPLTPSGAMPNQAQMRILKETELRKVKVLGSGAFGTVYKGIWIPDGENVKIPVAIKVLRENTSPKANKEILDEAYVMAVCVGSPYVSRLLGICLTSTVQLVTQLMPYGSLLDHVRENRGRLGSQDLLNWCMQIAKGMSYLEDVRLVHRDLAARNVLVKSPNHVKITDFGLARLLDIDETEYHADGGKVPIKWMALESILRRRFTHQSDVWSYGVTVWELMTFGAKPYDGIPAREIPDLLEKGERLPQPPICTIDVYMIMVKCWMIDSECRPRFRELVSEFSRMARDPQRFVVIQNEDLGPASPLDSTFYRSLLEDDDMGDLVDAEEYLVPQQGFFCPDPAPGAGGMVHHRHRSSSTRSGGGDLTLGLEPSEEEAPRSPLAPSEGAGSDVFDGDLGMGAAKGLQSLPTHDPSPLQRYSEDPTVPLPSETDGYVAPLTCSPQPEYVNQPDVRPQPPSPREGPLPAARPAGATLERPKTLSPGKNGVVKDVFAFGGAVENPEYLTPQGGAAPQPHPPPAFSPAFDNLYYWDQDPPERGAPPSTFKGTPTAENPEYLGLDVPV
Chain of Ba/F3 cells expressing HER2 YVMA + C805S (YVMACS) (P04626 with tags, fused parts or gaps DUP772-775/C805S): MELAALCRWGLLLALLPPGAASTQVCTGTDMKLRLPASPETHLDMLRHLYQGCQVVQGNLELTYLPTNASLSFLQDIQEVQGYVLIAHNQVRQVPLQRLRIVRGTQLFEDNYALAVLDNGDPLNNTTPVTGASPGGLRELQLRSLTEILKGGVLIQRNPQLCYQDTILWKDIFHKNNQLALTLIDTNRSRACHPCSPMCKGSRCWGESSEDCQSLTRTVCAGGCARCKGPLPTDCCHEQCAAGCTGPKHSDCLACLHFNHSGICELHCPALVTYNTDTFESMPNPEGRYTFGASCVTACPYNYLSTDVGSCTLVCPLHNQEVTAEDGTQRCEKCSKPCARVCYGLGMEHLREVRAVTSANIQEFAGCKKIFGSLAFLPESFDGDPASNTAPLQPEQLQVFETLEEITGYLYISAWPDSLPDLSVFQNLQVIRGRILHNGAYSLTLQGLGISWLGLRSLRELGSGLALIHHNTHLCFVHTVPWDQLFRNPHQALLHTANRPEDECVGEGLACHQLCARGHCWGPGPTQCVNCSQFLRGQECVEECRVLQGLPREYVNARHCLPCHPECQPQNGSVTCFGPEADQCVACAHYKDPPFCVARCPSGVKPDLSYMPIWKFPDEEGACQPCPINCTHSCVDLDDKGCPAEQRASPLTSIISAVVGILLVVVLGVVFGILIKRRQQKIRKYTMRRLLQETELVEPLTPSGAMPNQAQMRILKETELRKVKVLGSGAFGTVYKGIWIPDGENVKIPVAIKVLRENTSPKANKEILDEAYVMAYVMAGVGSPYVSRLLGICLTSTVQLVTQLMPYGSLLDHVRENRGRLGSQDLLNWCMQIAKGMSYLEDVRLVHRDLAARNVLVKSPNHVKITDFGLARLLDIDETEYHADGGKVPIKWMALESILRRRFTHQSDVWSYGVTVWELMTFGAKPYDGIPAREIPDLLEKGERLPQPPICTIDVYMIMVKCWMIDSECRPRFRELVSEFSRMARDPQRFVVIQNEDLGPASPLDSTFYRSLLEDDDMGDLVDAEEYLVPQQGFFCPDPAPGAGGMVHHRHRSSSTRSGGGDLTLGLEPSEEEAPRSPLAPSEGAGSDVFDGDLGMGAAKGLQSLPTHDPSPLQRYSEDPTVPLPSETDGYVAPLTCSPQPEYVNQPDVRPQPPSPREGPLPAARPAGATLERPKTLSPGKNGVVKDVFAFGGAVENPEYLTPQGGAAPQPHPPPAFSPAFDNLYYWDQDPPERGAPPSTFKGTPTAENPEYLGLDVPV

Compound `C=CC(=O)N1CCC(Oc2cc3c(Nc4ccc(Cl)c(Cl)c4F)ncnc3cc2OC)CC1` [Poziotinib] has a GI50 [1] of 27.9 nM, a GI50 [2] of less than 0.457 nM and a GI50 [3] of 27.9 nM. The GI50 [4] was less than 0.457 nM, the GI50 [5] was 2.2 nM and the GI50 [6] was 316 nM. For the same compound, the GI50 [7] was greater than 1000 nM, the GI50 [8] was 0.7 nM and the GI50 [9] was 22.8 nM. For the same compound, the GI50 [10] was 0.02 nM, the GI50 [11] was greater than 1000 nM and the GI50 [12] was 7.1 nM. It also gave a GI50 [13] of 28 nM, a GI50 [14] of 1.03 nM and a GI50 [15] of 0.64 nM. It also gave a GI50 [16] of 1.6 nM.
For `C=CC(=O)Nc1cc(Nc2nccc(-n3cc(CN(C)C)c(-c4ccccc4)n3)n2)c(OC)cc1N1CCOCC1` [YH25448], the body weight [17, 25] is given as “no obvious loss of the body weight”, the “intracranial tumor growth inhibition vs osimertinib” value [17, 25] is given as “more effectively inhibited intracranial tumor growth than osimertinib” and the intracranial tumor regression ([17]; H1975 xenograft model) is given as “showed intracranial tumor regression”.
For `C=CC(=O)Nc1cc(Nc2nccc(-c3cn(C)c4ccccc34)n2)c(OC)cc1N(C)CCN(C)C` [Osimertinib, N-(2-{2-dimethylaminoethyl-methylamino}-4-methoxy-5-{[4-(1-methylindol-3-yl)pyrimidin-2-yl]amino}phenyl)prop-2-enamide], the GI50 [1] was greater than 1000 nM, the IC50 [18] was 303 nM and the GI50 [6] was greater than 1000 nM. It also gave an IC50 ([19]; NCI-H1781, H-1781, ERBB2 p.G776Ins V_G/C, normoxic conditions, read-out: Cellular Anti-Proliferative Assay IC50) of 406 nM, an IC50 [20] of 426 ± 3 nM and an IC50 ([21]; NCI-H2170, H-2170, ERBB2 amplification, normoxic conditions, read-out: Cellular Anti-Proliferative Assay IC50) of 113 nM. The IC50 ([22]; CALU-3, ERBB2 amplification, normoxic conditions, read-out: Cellular Anti-Proliferative Assay IC50) was 188 nM, the tumor regression ([23]; 5 mg/kg QD, first three weeks) was “caused tumor regression, which was more transient” and the tumor regression ([23]; 25 mg/kg QD) was “induced sustained tumor regression until study end at day 60”. For the same compound, the GI50 [10] was 7.23 nM, the IC50 [24] was 647 ± 3 nM and the GI50 [14] was 88.5 nM. For the same compound, the GI50 [15] was 68.3 nM.
`CN(C)CC=CC(=O)Nc1cc2c(Nc3ccc(F)c(Cl)c3)ncnc2cc1O[C@H]1CCOC1` [Afatinib, N-[4-[(3-Chloro-4-fluorophenyl)amino]-7-[[(3S)-tetrahydro-3-furanyl]oxy]-6-quinazolinyl]-4(dimethylamino)-2-butenamide] gave a GI50 [1] of 41.3 nM, a GI50 [6] of 545 nM and an IC50 ([19]; NCI-H1781, read-out: Cellular Anti-Proliferative Assay IC50) of 66 nM. The IC50 ([21]; NCI-H2170, read-out: Cellular Anti-Proliferative Assay IC50) was 11 nM, the IC50 ([22]; Calu-3, read-out: Cellular Anti-Proliferative Assay IC50) was 31 nM and the GI50 [10] was 2.05 nM. The GI50 [14] was 6.5 nM and the GI50 [15] was 8.08 nM.
